Structures are written as SMILES.

This experiment can be described thus: Antioxidant assay by β-carotene-linoleate model system. The experiment is classed as biochemical. The settings on record: 100 ppm concentration; β-carotene bleaching, 90 min incubation at 50° C. As to the method: The antioxidant activity of curry leaves extract was evaluated by the β-carotene-linoleate model (Jayaprakasha and Jaganmohan Rao, Z. Naturforsch. 55C, 1018-1022, 2000). 0.2 mg of the β-carotene in 0.5 ml of chloroform, 20 mg of linoleic acid and 200 mg of Tween-40 (polyoxyethylene sorbitan monopalmitate) were mixed together. The chloroform was removed at 40° C. under vacuum using a rotary evaporator. The resulting solution was immediately diluted with 10 ml of triple-distilled water and the emulsion was mixed well for 1 min. The emulsion was further diluted with 40 ml of oxygenated water before use. 4 ml aliquots of this mixture were transferred into different tubes containing 0.2 ml of samples at 100 ppm concentrations in ethanol, butylated hydroxyanisole (BHA) was used for comparative purposes. A control containing 0.2 ml of ethanol and 4 ml of the above mixture was prepared. Optical density (OD) at 470 nm were taken for the all extracts and pure compounds immediately (t=0) at 15 min intervals for 1.5 h (t=90). […] The antioxidant activities (AA) of the samples were evaluated in terms of bleaching the β-carotene using the following formula. AA=100[1−(Ao−At)/(A^oo−A^ot)] where Ao and A^oo are the OD measured at zero time of incubation for test sample and control, respectively. At and A^ot are the OD measured in the test sample and control, respectively, after incubation for 90 min.

`COc1ccc(O)c(C(C)(C)C)c1` [BHA, butylated hydroxy anisole] registered an antioxidant activity of 90.2%.

Values taken from US20090081322A1, “Process for the preparation of antioxidant conserve from Indian curry leaves (MURRAYA KOENIGII SPRENG.)” (Council of Scientific and Industrial Research, priority 2002, published 2009).
